From patent publication US20070161592A1, “Method of treating fear” (priority 2005, published 2007)

Assays:
[1] = tested on: NMDAR-mediated currents in the ACC; experiment: NMDAR-mediated EPSCs in the ACC; type: cell-based, mouse
Experimental: (§1) Coronal brain slices ([…]) from 6-8-week-old C57BL/6 mice, containing ACC or hippocampus, were prepared using standard methods (Wei et al., 2001). Slices were transferred to a submerged recovery chamber containing oxygenated (95% O2 and 5% CO2) artificial cerebrospinal fluid (ACSF) (in mM: 124 NaCl, 4.4 KCl, 2 CaCl2, 1 MgSO4, 25 NaHCO3, 1 NaH2PO4, 10 glucose) at room temperature for at least 1 h.
(§2) Experiments were performed in a recording chamber on the stage of an Axioskop 2FS microscope with infrared DIC optics for visualizing whole-cell patch clamp recordings. EPSCs were recorded from layer II-III neurons using an Axon 200B amplifier (Axon Instruments, CA) and stimulations were delivered using a bipolar tungsten stimulating electrode placed in layer V of the ACC. In hippocampal slices, EPSCs were evoked by stimulating the Schaffer collateral-commissural pathway. EPSCs were induced by repetitive stimulations at 0.02 Hz and neurons were voltage clamped at −70 mV. The recording pipettes (3-5 MΩ) were filled with solution containing (mM) 145 K-gluconate, 5 NaCl, 1 MgCl2, 0.2 EGTA, 10 HEPES, 2 Mg-ATP, and 0.1 Na3-GTP (adjusted to pH 7.2 with KOH). After obtaining stable EPSCs for 10 min, three kinds of LTP induction paradigms were used within 12 min after establishing the whole-cell configuration to prevent wash out effect on LTP induction (Tsvetkov et al., 2002). The first protocol involved paired presynaptic 80 pulses at 2 Hz with postsynaptic depolarization at +30 mV (referred to as pairing training). The second involved paired 3 presynaptic stimuli that caused 3 EPSPs (10 ms ahead) with 3 postsynaptic APs at 30 Hz, paired 15 times every 5 s (named as EPSPs-APs protocol). The third involved theta-burst stimulation (5 trains of burst with 4 pulses at 100 Hz, at 200 ms interval; repeated 4 times at intervals of 10 s; named as TBS). The NMDAR-mediated component of EPSCs was pharmacologically isolated in Mg^2+-free ACSF containing: CNQX (20 μM), glycine (1 μM) and picrotoxin (100 μM). The patch electrodes contained (in mM) 102 cesium gluconate, 5 TEA-chloride, 3.7 NaCl, 11 BAPTA, 0.2 EGTA, 20 HEPES, 2 MgATP, 0.3 NaGTP, and 5 QX-314 chloride (adjusted to pH 7.2 with CsOH). Neurons were voltage clamped at −60 mV and NMDARs-mediated EPSCs were evoked at 0.05 Hz. Picrotoxin (100 μM) was always present to block GABAA receptor-mediated inhibitory synaptic currents. The access resistance was 15-30 MΩ and was monitored throughout the experiment. Data were discarded if access resistance changed by more than 15% during an experiment. Results are expressed as means±SEM. Statistical comparisons were performed using the Student t-test.
One possible mechanism is that NR2B-containing receptors may contribute more to total NMDA currents in ACC synapses than in hippocampal synapses. […] Application of 0.1 μM or 0.4 μM NVP-AAM077 depressed total NMDAR-mediated currents by 59.0±4.3% (n=5) and 63.2±1.7% (n=6) in the ACC respectively (FIG. 5). On the other hand, application of 0.3 μM or 3 μM Ro25-6981 attenuated total NMDAR-mediated currents by 18.0±1.9% (n=5) and 18.1±3.4% (n=7) in the ACC respectively, showing that 0.3 μM Ro25-6981 was sufficient to block the NR2B-mediated currents (FIG. 5). This experiment was repeated in hippocampal CA1 neurons. […] However, unlike in the ACC, application of 0.3 μM Ro25-6981 alone potentiated, rather than blocked, total NMDAR-mediated currents by 51.3±16.4% in the hippocampus (FIG. 5).
The relative percentages of NR2A- and NR2B-mediated currents were determined by applying specific antagonists, NVP-AAM077 (0.4 μM) and Ro25-6981 (0.3 μM). The concentrations used here were based on the results from FIG. 5 and a recent study performed in the hippocampus (Liu et al., 2004). Application of NVP-AAMO77 depressed total NMDAR-mediated currents by 63.2±1.7% and the addition of Ro25-6981 to the same neuron further reduced currents by 13.7±1.4% (n=6) in the ACC (FIG. 6). […]

NR1/NR2A = conditions: cited from earlier work
adult ACC neurons [2] = experiment: LTP induced by EPSPs-APs protocol in ACC slices; type: cell-based, mouse; conditions: 0.3 μM
Experimental: as §1
as §2, with “t-test. […]” for “t-test.”

adult ACC neurons [3] = experiment: LTP induced by theta-burst stimulation (TBS) in ACC slices; type: cell-based, mouse; conditions: 0.3 μM
Experimental: as §1
as §2, with “t-test. […]” for “t-test.”

**Q.** For C[C@@H](CN1CCC(Cc2ccccc2)CC1)[C@@H](O)c1ccc(O)cc1 [Ro25-6981], which “further reduction of total NMDAR-mediated currents” value ([1]; 0.3 μM Ro25-6981 added to the same neuron after 0.4 μM NVP-AAM077) is on record?
**A.** 13.7±1.4%

**Q.** And the “depression of total NMDAR-mediated currents” value ([1]; 0.3 μM, applied alone or first)?
**A.** 18.0±1.9%

**Q.** And the “depression of total NMDAR-mediated currents” value ([1]; 3 μM)?
**A.** 18.1±3.4%

**Q.** And the “effect on total NMDAR-mediated currents” value ([1]; bath application of different doses, FIG. 5)?
**A.** depressed

**Q.** What about the IC50 (NR1/NR2A) of the same molecule?
**A.** 52 µM

**Q.** What about the “potentiation after EPSPs-APs protocol, % of baseline” value (adult ACC neurons [2]) of the same molecule?
**A.** 114.4±11.5%

**Q.** What about the “effect on LTP induced by EPSPs-APs protocol” value (adult ACC neurons [2]; FIG. 4B) of the same molecule?
**A.** blocked

**Q.** And the “LTP after TBS, % of baseline” value (adult ACC neurons [3])?
**A.** 105.5±8.3%

**Q.** What about the “effect on LTP induced by TBS” value (adult ACC neurons [3]; FIG. 4E) of the same molecule?
**A.** blocked
